Measurements as given in patent publication US20160279246A1, “METHODS AND SYSTEMS FOR CONTINUOUS HETEROGENEOUS CRYSTALLIZATION” (Massachusetts Institute of Technology, priority 2015, published 2016).

Test: Solubility of API and excipient in the solvent ethanol
Type: physicochemical
Description: The API-Excipient-Solvent selection was important to this process. The specific API chosen was soluble in the solvent; however the excipient was insoluble in the same solvent. The API-Excipient combination was such that the API molecules easily nucleate on the surface of the excipient. Use of low supersaturation stopped primary nucleation, and ensures the presence of heterogeneous nuclei alone. These nuclei grew further during their stay inside the column. Tuning of residence time and supersaturation helps in tuning of the loading (weight of API per unit weight of product) of excipient particles with drug.
An exemplary embodiment was implemented with Acetaminophen-D-mannitol-Ethanol as a sample API-Excipient-Solvent system. Acetaminophen was soluble in ethanol; however D-mannitol was insoluble in ethanol.

Row | Solubility in ethanol | Compound
1 | insoluble | OC[C@@H](O)[C@@H](O)[C@H](O)[C@H](O)CO [D-mannitol]
2 | soluble | CC(=O)Nc1ccc(O)cc1 [Acetaminophen]
